pIC50: −log10 of the molar value.
Legend:
Human LBAT = biological target: T1, Human LBAT (Homo sapiens, UniProt Q14973); test: LBAT (h/m) assay, human LBAT-overexpressing cells, 3H-taurocholic acid uptake; format: cell-based; conditions: 0.3 μM 3H-taurocholic acid and 7.5 μM cold taurocholic acid, 20 minutes, read-out: hLBAT IC50
T1 construct: expressed in transfected cells; kept under Geneticin selection
T1 sequence (Q14973 1-349): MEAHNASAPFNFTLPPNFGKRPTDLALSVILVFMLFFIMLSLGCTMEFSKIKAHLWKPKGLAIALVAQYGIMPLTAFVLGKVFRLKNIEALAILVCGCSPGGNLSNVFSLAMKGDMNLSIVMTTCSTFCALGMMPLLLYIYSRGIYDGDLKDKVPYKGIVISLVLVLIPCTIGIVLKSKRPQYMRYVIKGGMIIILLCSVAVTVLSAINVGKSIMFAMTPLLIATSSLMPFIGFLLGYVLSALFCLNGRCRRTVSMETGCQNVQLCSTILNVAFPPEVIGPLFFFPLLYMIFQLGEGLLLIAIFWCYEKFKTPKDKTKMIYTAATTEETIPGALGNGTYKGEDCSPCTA
Protocol: LBAT (h/m) Assay Protocol
20,000 cells (Human or Mouse LBAT-overexpressing cells) were seeded in 96-wells plate (Corning CLS3809) in 100 μL MEM-alpha medium (Gibco 12571-063) supplemented with 10% FBS (Gibco 10438026) containing Geneticin (Gibco 10131-027) (1 mg/mL) and incubated at 37° C. in 5% CO2 for 24 hours. After incubation, media was decanted from the wells and cells were washed two times with 300 μL of basal MEM-alpha medium (FBS-free). After decanting basal MEM-alpha medium each time, plates were tapped against paper towel to ensure maximum removal of residual media.
For human LBAT, incubation mix was prepared by adding test inhibitor dilutions (3-fold serial dilution in DMSO (Sigma D2650), 10 points) in MEM-alpha (without FBS) containing 0.3 μM 3H-taurocholic acid (ARC ART-1368) and 7.5 μM cold taurocholic acid (Sigma T4009) (maintaining 0.2% final DMSO concentration). For mouse LBAT, incubation mix was prepared by adding test inhibitor dilutions (3-fold serial dilution in DMSO, 10 points) in MEM-alpha (without FBS) containing 0.3 μM 3H-taurocholic acid and 25 μM cold taurocholic acid maintaining 0.2% final DMSO concentration).
50 μL of incubation mix containing test inhibitors was then added to the wells (in duplicate) and the plates were incubated for 20 minutes in a CO2 incubator at 37° C. After incubation, the reaction was stopped by keeping the plates on ice water mix for 2-3 minutes and then the incubation mix was aspirated completely from the wells. The wells were washed two times with 250 μL of chilled unlabelled 1 mM taurocholic acid dissolved in HEPES (Gibco 15630080)-buffered (10 mM) HBSS (Gibco 14175079) (pH 7.4). The plates were tapped against a paper towel after every wash to ensure maximum removal of blocking buffer.
100 μL of MicroScint-20 (PerkinElmer 6013621) was added to the wells and kept overnight at room temperature before reading the plates in TopCount NXT™ Microplate Scintillation and Luminescence Counter from PerkinElmer under 3H Test protocol (set at 120 seconds reading time per well, with normal plate orientation).
(§1) Preparation of Test Compound Dilutions
(§2) All test compounds were provided in powder form at room temperature. 10 mM DMSO stocks of the test compounds were prepared, aliquoted and stored at −20° C. From the 10 mM DMSO stock of the compounds, a 3-fold serial dilution in DMSO was prepared to get a total of 10 dilutions of the test compounds. 0.5 μL of this dilution in DMSO was added to 250 μL of FBS-free basal media containing 3H-taurocholic acid and cold taurocholic acid to prepare the incubation mixture.

Human IBAT = biological target: T2, Human IBAT (Homo sapiens, UniProt Q12908); test: IBAT (h/m) assay, human IBAT-overexpressing cells, 3H-taurocholic acid uptake; format: cell-based; conditions: 0.25 μM 3H-taurocholic acid and 5 μM cold taurocholic acid, 20 minutes, highest test concentration 10 μM, read-out: hIBAT IC50
T2 construct: expressed in transfected cells; kept under Puromycin selection
T2 sequence (Q12908 1-348): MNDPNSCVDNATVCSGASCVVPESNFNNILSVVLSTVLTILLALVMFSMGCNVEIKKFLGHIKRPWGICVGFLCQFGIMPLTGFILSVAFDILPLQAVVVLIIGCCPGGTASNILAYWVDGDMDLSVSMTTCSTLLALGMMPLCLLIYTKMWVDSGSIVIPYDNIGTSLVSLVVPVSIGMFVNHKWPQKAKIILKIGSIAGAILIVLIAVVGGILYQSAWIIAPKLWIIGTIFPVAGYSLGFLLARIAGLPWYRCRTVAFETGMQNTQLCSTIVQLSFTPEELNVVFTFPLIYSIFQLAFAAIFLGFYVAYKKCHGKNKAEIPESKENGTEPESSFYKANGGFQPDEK
Protocol: IBAT (h/m) Assay Protocol
10,000 cells (Human or Mouse IBAT-overexpressing cells) were seeded in 96-wells plate (Corning CLS3809) in 200 μL MEM-alpha medium (Gibco 12571-063) supplemented with 10% FBS (Gibco 10438026) containing Puromycin (Gibco A1113803) (10 μg/mL) and incubated at 37° C. in 5% CO2 for 48 hours. After incubation, media was decanted from the wells and cells were washed two times with 300 μL of basal MEM-alpha medium (FBS-free). After decanting basal MEM-alpha medium each time, plates were tapped against paper towel to ensure maximum removal of residual media. Test inhibitor dilutions (highest test concentration being 10 μM, 3-fold serial dilution, 10 points) prepared in DMSO (Sigma D2650) were added in incubation mix (maintaining 0.2% final DMSO concentration) containing 0.25 μM 3H-taurocholic acid (ARC ART-1368) and 5 μM of cold taurocholic acid (Sigma T4009). 50 μL of incubation mix containing test inhibitors was then added to the wells (in duplicate) and the plates were incubated for 20 minutes in a CO2 incubator at 37° C. After incubation, the reaction was stopped by keeping the plates on ice water mix for 2-3 minutes and then the incubation mix was aspirated completely from the wells. The wells were washed two times with 250 μL of chilled unlabelled 1 mM taurocholic acid dissolved in HEPES (Gibco 15630080)-buffered (10 mM) HBSS (Gibco 14175079) (pH 7.4). The plates were tapped against a paper towel after every wash to ensure maximum removal of blocking buffer.
100 μL of MicroScint-20 (PerkinElmer 6013621) was added to the wells and kept overnight at room temperature before reading the plates in TopCount NXT™ Microplate Scintillation and Luminescence Counter from PerkinElmer under 3H Test protocol (set at 120 seconds reading time per well).
as §1, §2

## CCCCC1CN(c2ccccc2)c2cc(SC)c(OCCC(=O)O)cc2S(=O)(=O)C1 (single isomer, unassigned) [26, enantiomer 1]
Human LBAT
  pIC50: 7.23

## CCCCC1CN(c2ccccc2)c2cc(SC)c(OCCC(=O)O)cc2S(=O)(=O)C1 (centres unmarked) [Example 25, 3-((3-butyl-7-(methylthio)-1,1-dioxido-5-phenyl-2,3,4,5-tetrahydro-1,5-benzothiazepin-8-yl)oxy)propanoic acid]
Human LBAT
  pIC50: 7.03

## CCCCC1CN(c2ccc(F)cc2)c2cc(SC)c(OCC3(C(=O)O)CC3)cc2S(=O)(=O)C1 (centres unmarked) [Example 10, 1-(((3-butyl-5-(4-fluorophenyl)-7-(methylthio)-1,1-dioxido-2,3,4,5-tetrahydro-1,5-benzothiazepin-8-yl)oxy)methyl)cyclopropane-1-carboxylic acid]
Human LBAT
  pIC50: 8.00
Human IBAT
  pIC50: 6.17

## CCCCC1CN(c2ccc(F)cc2)c2cc(SCC)c(OCC3(C(=O)O)CC3)cc2S(=O)(=O)N1 (single isomer, unassigned) [19, enantiomer 2]
Human LBAT
  pIC50: 6.97
Human IBAT
  pIC50: < 5.48

## CCCCC1CN(c2ccccc2)c2cc(SC)c(OCC(OC)C(=O)O)cc2S(=O)(=O)N1C (single isomer, unassigned) [31, stereoisomer 1]
Human LBAT
  pIC50: 5.25

## CCCCC1CN(c2ccccc2)c2cc(SC)c(OCC(OC)C(=O)O)cc2S(=O)(=O)N1C (single isomer, unassigned) [32, diastereomer 2]
Human LBAT
  pIC50: 7.49
Human IBAT
  pIC50: 5.32

## CCCCC1CN(c2ccccc2)c2cc(SCC)c(OCC3(C(=O)O)CC3)cc2S(=O)(=O)N1 (centres unmarked) [Example 15, 1-(((3-butyl-7-(ethylthio)-1,1-dioxido-5-phenyl-2,3,4,5-tetrahydro-1,2,5-benzothiadiazepin-8-yl)oxy)methyl)cyclopropane-1-carboxylic acid]
Human LBAT
  pIC50: 8.38
Human IBAT
  pIC50: < 5.48

## CCCCC1CN(c2ccccc2)c2cc(SC)c(OCC3(C(=O)O)CC3)cc2S(=O)(=O)N1C (single isomer, unassigned) [4, enantiomer 1]
Human LBAT
  pIC50: 6.17
Human IBAT
  pIC50: ≤ 5.00

## CCCCC1CN(c2ccccc2)c2cc(SCC)c(OCC(C)(C)C(=O)O)cc2S(=O)(=O)N1C (single isomer, unassigned) [6, enantiomer 1]
Human LBAT
  pIC50: 6.27

## CCCCC1CN(c2ccccc2)c2cc(SC)c(OCC(F)(F)C(=O)O)cc2S(=O)(=O)N1C (single isomer, unassigned) [21, enantiomer 1]
Human LBAT
  pIC50: < 6.48
Human IBAT
  pIC50: < 5.00

## CCCCC1CN(c2ccc(F)cc2)c2cc(SC)c(OCC(C)(C)C(=O)O)cc2S(=O)(=O)C1 (centres unmarked) [Example 9, 3-((3-butyl-5-(4-fluorophenyl)-7-(methylthio)-1,1-dioxido-2,3,4,5-tetrahydro-1,5-benzothiazepin-8-yl)oxy)-2,2-dimethylpropanoic acid]
Human LBAT
  pIC50: 8.28
Human IBAT
  pIC50: 5.57

## CCCCC1CN(c2ccc(F)cc2)c2cc(SC)c(OCC3(C(=O)O)CC3)cc2S(=O)(=O)N1 (centres unmarked) [Example 16, 1-(((3-butyl-5-(4-fluorophenyl)-7-(methylthio)-1,1-dioxido-2,3,4,5-tetrahydro-1,2,5-benzothiadiazepin-8-yl)oxy)methyl)cyclopropane-1-carboxylic acid]
Human LBAT
  pIC50: 8.47
Human IBAT
  pIC50: 6.33

## CCCCC1CN(c2ccccc2)c2cc(SC)c(OCC(F)(F)C(=O)O)cc2S(=O)(=O)N1C (centres unmarked) [Example 20, 3-((3-butyl-2-methyl-7-(methylthio)-1,1-dioxido-5-phenyl-2,3,4,5-tetrahydro-1,2,5-benzothiadiazepin-8-yl)oxy)-2,2-difluoropropanoic acid]
Human LBAT
  pIC50: 8.96
Human IBAT
  pIC50: 6.59

## CCCCC1CN(c2ccccc2)c2cc(SC)c(OCC(O)C(=O)O)cc2S(=O)(=O)C1 (centres unmarked) [Example 28, 3-((3-butyl-7-(methylthio)-1,1-dioxido-5-phenyl-2,3,4,5-tetrahydro-1,5-benzothiazepin-8-yl)oxy)-2-hydroxypropanoic acid]
Human LBAT
  pIC50: 6.73

## CCCCC1CN(c2ccccc2)c2cc(SCC)c(OCC3(C(=O)O)CC3)cc2S(=O)(=O)N1C (single isomer, unassigned) [8, enantiomer 2]
Human LBAT
  pIC50: 6.23
Human IBAT
  pIC50: 5.30

## CCCCC1CN(c2ccccc2)c2cc(SC)c(OCC(OC)C(=O)O)cc2S(=O)(=O)N1C (centres unmarked) [Example 30, 3-((3-butyl-2-methyl-7-(methylthio)-1,1-dioxido-5-phenyl-2,3,4,5-tetrahydro-1,2,5-benzothiadiazepin-8-yl)oxy)-2-methoxypropanoic acid]
Human LBAT
  pIC50: 7.19

## CCCCC1CN(c2ccc(F)cc2)c2cc(SCC)c(OCC3(C(=O)O)CC3)cc2S(=O)(=O)N1 (centres unmarked) [Example 18, 1-(((3-butyl-7-(ethylthio)-5-(4-fluorophenyl)-1,1-dioxido-2,3,4,5-tetrahydro-1,2,5-benzothiadiazepin-8-yl)oxy)methyl)cyclopropane-1-carboxylic acid]
Human LBAT
  pIC50: 8.48
Human IBAT
  pIC50: 6.34

## CCCCC1CN(c2ccccc2)c2cc(SC)c(OCC(OC)C(=O)O)cc2S(=O)(=O)N1C (single isomer, unassigned) [31, stereoisomer 2]
Human LBAT
  pIC50: 7.66
Human IBAT
  pIC50: 5.68

## CCCCC1CN(c2ccc(F)cc2)c2cc(SC)c(OCC3(C(=O)O)CC3)cc2S(=O)(=O)N1C (centres unmarked) [Example 11, 1-(((3-butyl-5-(4-fluorophenyl)-2-methyl-7-(methylthio)-1,1-dioxido-2,3,4,5-tetrahydro-1,2,5-benzothiadiazepin-8-yl)oxy)methyl)cyclopropane-1-carboxylic acid]
Human LBAT
  pIC50: 8.35
Human IBAT
  pIC50: 6.78

## CCCCC1CN(c2ccccc2)c2cc(SC)c(OCC(C)(C)C(=O)O)cc2S(=O)(=O)N1C (single isomer, unassigned) [2, enantiomer 1]
Human LBAT
  pIC50: 5.64
Human IBAT
  pIC50: ≤ 5.00

## CCCCC1CN(c2ccccc2)c2cc(SC)c(OCC(C)(C)C(=O)O)cc2S(=O)(=O)N1C (centres unmarked) [Example 1, 3-((3-Butyl-2-methyl-7-(methylthio)-1,1-dioxido-5-phenyl-2,3,4,5-tetrahydro-1,2,5-benzothiadiazepin-8-yl)oxy)-2,2-dimethylpropanoic acid]
Human LBAT
  pIC50: 8.01

Reference: patent publication US12365658B2, “Benzothia(di)azepine compounds and their use as bile acid modulators” (Albireo AB, priority 2021, dated 2025)
